This note sets out measurements from publication PMC7509035, “[^68Ga]ABY-028: an albumin-binding domain (ABD) protein-based imaging tracer for positron emission tomography (PET) studies of altered vascular permeability and predictions of albumin-drug conjugate transport” (EJNMMI Research, 2020).

One data set concerns FaDu xenografts. The experiment in a line: Longitudinal dual tracer PET in two FaDu xenografts. Type of data set: in vivo, human tumor xenograft in NIH-Foxn1mu rat. Conditions: rat, [^18F]FDG. The protocol:
(§1) A431 (human epidermoid carcinoma) and FaDu (human squamous carcinoma of the hypopharynx) cell lines were purchased from American Type Culture Collection (ATCC). The cells were cultured in Dulbecco’s Modified Eagle’s Medium (4500 mg/L D-glucose containing L-glutamine) and were maintained at 37 °C in a humidified atmosphere, containing 5% CO2. All media were additionally supplemented with 1 mM sodium pyruvate, 100 units penicillin/mL, 100 μg streptomycin/mL, and 10% fetal bovine serum (Gibco). Media for FaDu cells were further supplemented with 0.1 mM non-essential amino acids and 2 mM HEPES. The integrity of the cell lines was verified with short tandem repeat profiling cell authentication analysis (LGC Standards).
(§2) Rodents were anaesthetized (1.5% isoflurane (Virbac, Carros Cedex, France) blended with air (7:3) in a vaporizer (E-Z systems) delivered through a Microflex non-rebreather mask (Euthanex Corp)) and then i.v. injected (tail vein) with the radiotracer. PET imaging was performed using a microPET Focus 120 (CTI Concorde Microsystems, Knoxville, TN, USA). Data were acquired in list mode and reconstructed using Filtered Back Projection for the constant bed motion (CBM) scans or, to increase the spatial resolution in the dynamic scans, Ordered Subset […] in 2 dimensions, 4 iterations, and 16 subsets. Data, normalized and corrected for randoms, dead time, and radioactivity decay, were processed using MicroPET Manager and evaluated using the Inveon Research Workplace (IRW) software (Siemens Medical Systems, Malvern, PA, USA). The ROI selections were based on the PET images and the radioactivity in ROIs was calculated as mean or maximum standard uptake values (SUVmean or SUVmax) normalized to body weight. Blood ROIs were delineated on the left ventricle of the heart in the first frames of the scan. Liver ROIs were drawn on one lobe. Muscle ROIs were drawn on the front (rat) and hind (mouse) leg muscle on the images summed over the entire scan. […] Growth of the tumor xenografts was monitored by caliper measurements. […]

The test system of another data set is A431 xenografts. Put plainly: PET uptake in A431 xenografts after nitroglycerin (NG) ointment. Type of data set: in vivo, human tumor xenograft in NIH-Foxn1mu rat. Conditions: NG ointment 1 mg/tumor cutaneous, [^68Ga]ABY-028 uptake. The method, then: as §1, §2

The structures appear in SMILES notation. “Also recorded” adds a separate entry of the source.

In the case of `O=C[C@H]([18F])[C@@H](O)[C@H](O)[C@H](O)CO` [[^18F]FDG, [2-^18F]-2-Fluoro-2-deoxy-D-glucose], the “increase of uptake between early and late imaging, day 0” value with FaDu xenografts (both FaDu tumors, 50 to 160 min, day 0) is “approximately 20%”. Also, the “increase of uptake between early and late imaging, day 3” value in the data set on FaDu xenografts (both FaDu tumors, 50 to 160 min, day 3) is ~35%. In the data set on FaDu xenografts (left FaDu tumor, area in center extending to one edge, both time points), the “decrease of SUV in tumor center, left tumor, day 3” value was “approximately 30%”.
`O=[N+]([O-])OCC(CO[N+](=O)[O-])O[N+](=O)[O-]` [nitroglycerin, glyceryltrinitrate]: the “effect of NG on tracer radioactivity in A431 xenografts” value in the data set on A431 xenografts is “increased radioactivity in the A431 xenografts”; in the data set on A431 xenografts (listed as NG), “A more rapid increase in focal radioactivity levels; also recorded: increased uptake of albumin-bound [^68Ga]ABY-028”; in the data set on A431 xenografts (listed as Nitroglycerin (NG)), “NG-induced changes are revealed by the SUVmax”.
